In BindingDB's records for patent US20230286970 (Italfarmaco, 2023):

Tests used:
Test in all cases: Enzymatic Activity Assay
[1] = biological target: Histone deacetylase 5 (Homo sapiens, UniProt Q9UQL6)
Description: (§1) After a period of preincubation (incubation times and temperatures vary for different isoforms and are shown in table 1) 25 μL of solution containing the substrate were added. […] Enzymatic activity on recombinant human HDAC6 and HDAC1 was evaluated (Table 2) for each synthesized compound.

[2] = biological target: T1, Polyamine deacetylase HDAC10 (Homo sapiens, UniProt Q969S8)
T1 sequence (Q969S8 whole entry): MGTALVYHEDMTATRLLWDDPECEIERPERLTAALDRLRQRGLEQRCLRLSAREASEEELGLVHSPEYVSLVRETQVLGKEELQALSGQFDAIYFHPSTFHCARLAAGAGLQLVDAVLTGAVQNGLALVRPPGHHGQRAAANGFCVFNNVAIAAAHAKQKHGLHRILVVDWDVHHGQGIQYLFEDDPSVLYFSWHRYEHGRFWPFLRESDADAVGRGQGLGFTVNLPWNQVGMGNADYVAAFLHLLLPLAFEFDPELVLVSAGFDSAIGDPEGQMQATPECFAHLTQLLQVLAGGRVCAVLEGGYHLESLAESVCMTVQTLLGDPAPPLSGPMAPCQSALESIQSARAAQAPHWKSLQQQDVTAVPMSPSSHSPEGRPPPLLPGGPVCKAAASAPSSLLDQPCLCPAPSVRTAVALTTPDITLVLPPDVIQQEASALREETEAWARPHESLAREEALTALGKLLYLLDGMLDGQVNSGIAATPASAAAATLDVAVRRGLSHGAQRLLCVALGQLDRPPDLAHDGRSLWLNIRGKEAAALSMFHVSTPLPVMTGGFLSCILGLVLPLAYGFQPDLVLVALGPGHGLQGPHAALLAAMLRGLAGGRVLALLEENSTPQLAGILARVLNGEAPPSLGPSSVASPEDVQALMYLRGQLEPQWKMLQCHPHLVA
Description: as §1

[3] = biological target: Histone deacetylase 1 (Homo sapiens, UniProt Q13547)
Description: as §1

[4] = biological target: T2, Histone deacetylase 6 (Homo sapiens, UniProt Q9UBN7)
T2 sequence (Q9UBN7 whole entry): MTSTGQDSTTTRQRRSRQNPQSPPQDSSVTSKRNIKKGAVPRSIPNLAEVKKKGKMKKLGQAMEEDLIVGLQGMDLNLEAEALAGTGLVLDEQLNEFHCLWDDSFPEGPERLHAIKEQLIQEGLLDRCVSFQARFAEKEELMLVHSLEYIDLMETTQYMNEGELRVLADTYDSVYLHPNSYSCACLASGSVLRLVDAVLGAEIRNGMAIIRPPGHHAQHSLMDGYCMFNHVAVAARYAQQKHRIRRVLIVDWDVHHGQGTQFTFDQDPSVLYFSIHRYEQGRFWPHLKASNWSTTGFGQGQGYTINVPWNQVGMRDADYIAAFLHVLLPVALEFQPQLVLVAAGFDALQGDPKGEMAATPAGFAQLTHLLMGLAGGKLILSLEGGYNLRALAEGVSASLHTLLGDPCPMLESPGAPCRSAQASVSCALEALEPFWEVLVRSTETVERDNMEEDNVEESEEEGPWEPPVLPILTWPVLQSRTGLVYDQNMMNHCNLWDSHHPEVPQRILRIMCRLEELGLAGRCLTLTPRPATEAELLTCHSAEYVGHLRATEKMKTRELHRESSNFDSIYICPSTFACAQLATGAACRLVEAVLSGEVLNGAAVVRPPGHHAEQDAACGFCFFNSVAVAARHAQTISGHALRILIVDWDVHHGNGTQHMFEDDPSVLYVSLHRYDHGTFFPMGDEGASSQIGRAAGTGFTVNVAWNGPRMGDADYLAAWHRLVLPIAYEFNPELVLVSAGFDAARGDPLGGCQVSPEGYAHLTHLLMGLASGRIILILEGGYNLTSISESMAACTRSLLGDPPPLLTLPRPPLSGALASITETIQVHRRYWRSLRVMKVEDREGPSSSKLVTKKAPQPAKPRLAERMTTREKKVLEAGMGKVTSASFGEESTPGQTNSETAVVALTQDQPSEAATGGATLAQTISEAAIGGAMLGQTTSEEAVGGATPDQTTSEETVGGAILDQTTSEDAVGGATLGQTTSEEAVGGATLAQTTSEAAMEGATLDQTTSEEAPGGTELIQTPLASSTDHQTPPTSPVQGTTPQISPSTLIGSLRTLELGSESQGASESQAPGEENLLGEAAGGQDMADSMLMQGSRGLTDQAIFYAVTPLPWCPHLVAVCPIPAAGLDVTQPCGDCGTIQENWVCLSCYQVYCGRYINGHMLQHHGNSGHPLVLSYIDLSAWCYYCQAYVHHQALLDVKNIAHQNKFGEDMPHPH
Description: as §1

Sequence of Histone deacetylase 5 (Q9UQL6 whole entry, canonical isoform): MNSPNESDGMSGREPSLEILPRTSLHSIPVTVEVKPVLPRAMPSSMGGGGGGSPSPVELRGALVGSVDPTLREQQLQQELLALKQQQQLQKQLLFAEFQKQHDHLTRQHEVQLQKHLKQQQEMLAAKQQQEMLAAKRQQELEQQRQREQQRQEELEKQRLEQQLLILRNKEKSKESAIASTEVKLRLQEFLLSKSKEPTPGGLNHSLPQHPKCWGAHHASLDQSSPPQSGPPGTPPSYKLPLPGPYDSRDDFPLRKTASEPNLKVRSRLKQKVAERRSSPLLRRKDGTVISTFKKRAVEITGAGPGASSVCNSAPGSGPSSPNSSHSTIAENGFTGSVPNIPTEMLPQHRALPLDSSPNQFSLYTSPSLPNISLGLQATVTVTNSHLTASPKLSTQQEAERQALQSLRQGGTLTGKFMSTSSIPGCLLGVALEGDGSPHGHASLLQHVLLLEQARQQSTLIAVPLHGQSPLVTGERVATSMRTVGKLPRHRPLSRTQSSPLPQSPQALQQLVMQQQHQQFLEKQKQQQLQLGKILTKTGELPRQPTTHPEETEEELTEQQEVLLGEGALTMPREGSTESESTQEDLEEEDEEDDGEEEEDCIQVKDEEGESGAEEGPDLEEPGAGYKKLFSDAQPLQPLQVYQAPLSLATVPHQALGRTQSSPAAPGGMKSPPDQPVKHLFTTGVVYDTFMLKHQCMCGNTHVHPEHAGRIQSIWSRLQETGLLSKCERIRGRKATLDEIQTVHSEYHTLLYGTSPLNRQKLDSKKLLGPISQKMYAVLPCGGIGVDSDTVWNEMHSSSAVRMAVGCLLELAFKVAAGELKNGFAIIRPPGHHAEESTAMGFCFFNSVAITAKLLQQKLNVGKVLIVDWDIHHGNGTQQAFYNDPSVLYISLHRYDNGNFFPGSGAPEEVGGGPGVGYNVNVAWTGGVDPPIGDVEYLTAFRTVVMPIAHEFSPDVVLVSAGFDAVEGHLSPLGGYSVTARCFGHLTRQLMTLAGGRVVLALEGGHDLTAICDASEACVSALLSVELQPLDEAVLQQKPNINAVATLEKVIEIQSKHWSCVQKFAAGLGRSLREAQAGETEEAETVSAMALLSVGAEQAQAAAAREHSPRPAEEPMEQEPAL
Sequence of Histone deacetylase 1 (Q13547 whole entry): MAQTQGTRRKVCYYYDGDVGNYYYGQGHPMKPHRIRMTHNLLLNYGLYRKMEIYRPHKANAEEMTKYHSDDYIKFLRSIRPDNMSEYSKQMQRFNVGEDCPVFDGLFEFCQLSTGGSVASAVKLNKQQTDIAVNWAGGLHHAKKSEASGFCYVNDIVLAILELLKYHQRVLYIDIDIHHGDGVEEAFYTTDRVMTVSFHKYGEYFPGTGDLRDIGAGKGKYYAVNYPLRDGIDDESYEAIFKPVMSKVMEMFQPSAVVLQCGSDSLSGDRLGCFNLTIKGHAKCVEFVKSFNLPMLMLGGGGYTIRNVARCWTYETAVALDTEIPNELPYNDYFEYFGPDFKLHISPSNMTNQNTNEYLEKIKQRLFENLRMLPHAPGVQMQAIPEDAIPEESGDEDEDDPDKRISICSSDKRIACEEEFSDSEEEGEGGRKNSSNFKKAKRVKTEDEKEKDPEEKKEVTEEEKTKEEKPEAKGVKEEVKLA

| IC50 [1] [µM] | IC50 [2] [µM] | IC50 [3] [µM] | IC50 [4] [µM] | SMILES |
| --- | --- | --- | --- | --- |
| > 30 | > 30 | > 200 | 0.025 | Nc1nc2ccc(-c3cn(Cc4ccc(-c5nnc(C(F)F)o5)cc4)nn3)cc2s1 [US20230286970, Compound 14] |
| > 30 | > 30 | > 200 | 0.026 | Nc1ccc(-c2cn(Cc3ccc(-c4nnc(C(F)F)o4)c(F)c3)nn2)cn1 [US20230286970, Compound 15] |
